Test results from patent publication US6737383B1, “Herbicidal oxadiazolidines” (priority 1999, dated 2004).

What was measured:
bedstraw = test: Test B pre/postemergence bedstraw; assay type: in vivo, Galium aparine
Outline: (§1)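 Test chemicals in a non-phytotoxic solvent mixture with surfactant were sprayed preemergence onto planted seeds and postemergence onto plants 2 to 18 cm tall (1- to 4-leaf stage). After twelve to sixteen days in a greenhouse, injury was visually rated against untreated controls from 0 (no effect) to 10 (complete control).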

rice = test: Test B flood test rice; assay type: in vivo, Oryza sativa
Outline: (§2)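 Plants were grown to the 2-leaf stage before treatment with test chemical, then held in a greenhouse for twelve to sixteen days. Injury was visually rated against untreated controls on a 0–10 scale, where 0 is no effect and 10 is complete control.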

crabgrass = test: Test B pre/postemergence crabgrass; assay type: in vivo, Digitaria sanguinalis
Outline: as §1

purple nutsedge = test: Test B pre/postemergence purple nutsedge; assay type: in vivo, Cyperus rotundus
Outline: as §1

blackgrass = test: Test B pre/postemergence blackgrass; assay type: in vivo, Alopecurus myosuroides
Outline: as §1

wheat = test: Test B pre/postemergence wheat; assay type: in vivo, Triticum aestivum
Outline: as §1

soybean = test: Test B pre/postemergence soybean; assay type: in vivo, Glycine max
Outline: as §1

rape = test: Test B pre/postemergence rape; assay type: in vivo, Brassica napus
Outline: as §1

morningglory = test: Test B pre/postemergence morningglory; assay type: in vivo, Ipomoea hederacea
Outline: as §1

duck salad = test: Test B flood test duck salad; assay type: in vivo, Heteranthera limosa
Outline: as §2

giant foxtail = test: Test B pre/postemergence giant foxtail; assay type: in vivo, Setaria faberii
Outline: as §1

surinam grass = test: Test B pre/postemergence surinam grass; assay type: in vivo, Brachiaria decumbens
Outline: as §1

smallflower flatsedge = test: Test B flood test smallflower flatsedge; assay type: in vivo, Cyperus difformis
Outline: as §2

wild oat = test: Test B pre/postemergence wild oat; assay type: in vivo, Avena fatua
Outline: as §1

velvetleaf = test: Test B pre/postemergence velvetleaf; assay type: in vivo, Abutilon theophrasti
Outline: as §1

corn = test: Test B pre/postemergence corn; assay type: in vivo, Zea mays
Outline: as §1

[1] = Postemergence, Rate 125 g/ha, scale 0 to 10, 0 is no effect, 10 is complete control
[2] = Postemergence, Rate 250 g/ha, scale 0 to 10, 0 is no effect, 10 is complete control
[3] = Postemergence, Rate 500 g/ha, scale of 0 to 10 where 0 is no effect and 10 is complete control
[4] = Preemergence, Rate 62 g/ha, scale 0 to 10 (0 no effect, 10 complete control)
[5] = Preemergence, Rate 125 g/ha, scale of 0 to 10 where 0 is no effect and 10 is complete control
[6] = Preemergence, Rate 250 g/ha, scale of 0 to 10 where 0 is no effect and 10 is complete control
[7] = Preemergence, Rate 500 g/ha, scale 0 to 10, 0 is no effect, 10 is complete control
[8] = Rate 62 g/ha, Postemergence, scale of 0 to 10 where 0 is no effect and 10 is complete control
[9] = Rate 62 g/ha, flood test species, Pre-emergence, visual evaluation after twelve to sixteen days
[10] = Rate 125 g/ha, under heading Pre-emergence, flood test species, visual evaluation after twelve to sixteen days
[11] = Rate 250 g/ha, Pre-emergence, flood-test species, scale 0 to 10, 0 is no effect, 10 is complete control
[12] = Rate 500 g/ha, Pre-emergence, flood test species, scale 0 to 10 (0 no effect, 10 complete control)
[13] = Preemergence, Rate 250 g/ha, scale 0 to 10, 0 is no effect, 10 is complete control
[14] = Preemergence, Rate 500 g/ha, scale of 0 to 10 where 0 is no effect and 10 is complete control
[15] = Postemergence section (flood test species), Rate 500 g/ha, scale of 0 to 10 where 0 is no effect and 10 is complete control
[16] = flood test species, listed under Postemergence, Rate 250 g/ha, scale 0 to 10, 0 is no effect, 10 is complete control

## CC(C)N(C(=O)n1oc(=O)n(CC#N)c1=O)c1ccc(F)cc1 [Compound 395]
bedstraw; [1]
  Plant response rating, Bedstraw: 0
bedstraw; [2]
  Plant response rating, Bedstraw: 0
bedstraw; [3]
  Bedstraw plant response rating: 4
bedstraw; [4]
  Plant response rating, Bedstraw: 0
bedstraw; [5]
  Plant response rating, Bedstraw: 0
bedstraw; [6]
  Bedstraw plant response rating: 0
bedstraw; [7]
  Bedstraw plant response rating: 0
bedstraw; [8]
  Bedstraw plant response rating: 0
rice; [9]
  Plant response rating, Rice (0 to 10 scale, 0 is no effect, 10 is complete control): 0
rice; [10]
  Rice plant response rating (0 to 10 scale, 0 is no effect, 10 is complete control): 0
rice; [11]
  Rice plant response rating: 0
rice; [12]
  Rice plant response rating: 0
crabgrass; [1]
  Plant response rating, Crabgrass: 2
crabgrass; [2]
  Plant response rating, Crabgrass: 2
crabgrass; [3]
  Crabgrass plant response rating: 5
crabgrass; [4]
  Plant response rating, Crabgrass: 0
crabgrass; [5]
  Plant response rating, Crabgrass: 0
crabgrass; [13]
  Crabgrass plant response rating: 0
crabgrass; [7]
  Crabgrass plant response rating: 2
crabgrass; [8]
  Crabgrass plant response rating: 0
Purple nutsedge; [2]
  Plant response rating, Nutsedge: 0
Purple nutsedge; [3]
  Nutsedge plant response rating: 0
Purple nutsedge; [4]
  Plant response rating, Nutsedge: 0
Purple nutsedge; [5]
  Plant response rating, Nutsedge: 0
Purple nutsedge; [13]
  Nutsedge plant response rating: 0
Purple nutsedge; [7]
  Nutsedge plant response rating: 0
Purple nutsedge; [8]
  Nutsedge plant response rating: 0
blackgrass; [1]
  Plant response rating, Blackgrass: 0
blackgrass; [2]
  Plant response rating, Blackgrass: 0
blackgrass; [3]
  Blackgrass plant response rating: 5
blackgrass; [4]
  Plant response rating, Blackgrass: 0
blackgrass; [5]
  Plant response rating, Blackgrass: 0
blackgrass; [6]
  Blackgrass plant response rating: 0
blackgrass; [7]
  Blackgrass plant response rating: 0
blackgrass; [8]
  Blackgrass plant response rating: 0
wheat; [3]
  Wheat plant response rating: 3
wheat; [4]
  Plant response rating, Wheat: 0
wheat; [5]
  Plant response rating, Wheat: 0
wheat; [13]
  Wheat plant response rating: 0
wheat; [7]
  Wheat plant response rating: 0
wheat; [8]
  Wheat plant response rating: 0
soybean; [2]
  Plant response rating, Soybean: 1
soybean; [3]
  Soybean plant response rating: 1
soybean; [4]
  Plant response rating, Soybean: 0
soybean; [5]
  Plant response rating, Soybean: 0
soybean; [13]
  Soybean plant response rating: 0
soybean; [7]
  Soybean plant response rating: 0
soybean; [8]
  Soybean plant response rating: 0
rape; [2]
  Plant response rating, Rape: 0
rape; [4]
  Plant response rating, Rape: 0
rape; [5]
  Plant response rating, Rape: 0
rape; [13]
  Rape plant response rating: 0
rape; [7]
  Rape plant response rating: 0
rape; [8]
  Rape plant response rating: 0
morningglory; [2]
  Plant response rating, Morningglory: 0
morningglory; [4]
  Plant response rating, Morningglory: 0
morningglory; [5]
  Plant response rating, Morningglory: 0
morningglory; [13]
  Morningglory plant response rating: 0
morningglory; [7]
  Morningglory plant response rating: 0
morningglory; [8]
  Morningglory plant response rating: 0
Duck salad; [9]
  Plant response rating, Ducksalad (0 to 10 scale, 0 is no effect, 10 is complete control): 0
Duck salad; [10]
  Ducksalad plant response rating (0 to 10 scale, 0 is no effect, 10 is complete control): 0
Duck salad; [11]
  Ducksalad plant response rating: 0
Duck salad; [12]
  Ducksalad plant response rating: 0
Giant foxtail; [1]
  Plant response rating, Giant foxtail: 3
Giant foxtail; [2]
  Plant response rating, Giant foxtail: 5
Giant foxtail; [3]
  Giant foxtail plant response rating: 6
Giant foxtail; [4]
  Plant response rating, Giant foxtail: 0
Giant foxtail; [5]
  Plant response rating, Giant foxtail: 0
Giant foxtail; [13]
  Giant foxtail plant response rating: 0
Giant foxtail; [7]
  Giant foxtail plant response rating: 2
Giant foxtail; [8]
  Giant foxtail plant response rating: 0
Surinam grass; [1]
  Plant response rating, B. signalgrass: 0
Surinam grass; [2]
  Plant response rating, B. signalgrass: 0
Surinam grass; [3]
  B. signalgrass plant response rating: 0
Surinam grass; [4]
  Plant response rating, B. signalgrass: 0
Surinam grass; [5]
  Plant response rating, B. signalgrass: 0
Surinam grass; [6]
  B. signalgrass plant response rating: 0
Surinam grass; [14]
  B. signalgrass plant response rating: 0
Surinam grass; [8]
  B. signalgrass plant response rating: 0
Smallflower flatsedge; [9]
  Plant response rating, S. Flatsedge (0 to 10 scale, 0 is no effect, 10 is complete control): 0
Smallflower flatsedge; [10]
  S. Flatsedge plant response rating (0 to 10 scale, 0 is no effect, 10 is complete control): 0
Smallflower flatsedge; [11]
  S. Flatsedge plant response rating: 0
Smallflower flatsedge; [12]
  S. Flatsedge plant response rating: 0
Wild oat; [3]
  Wild oats plant response rating: 3
Wild oat; [4]
  Plant response rating, Wild oats: 0
Wild oat; [5]
  Plant response rating, Wild oats: 0
Wild oat; [13]
  Wild oats plant response rating: 0
Wild oat; [7]
  Wild oats plant response rating: 0
Wild oat; [8]
  Wild oats plant response rating: 0
velvetleaf; [2]
  Plant response rating, Velvetleaf: 2
velvetleaf; [3]
  Velvetleaf plant response rating: 2
velvetleaf; [4]
  Plant response rating, Velvetleaf: 0
velvetleaf; [5]
  Plant response rating, Velvetleaf: 0
velvetleaf; [13]
  Velvetleaf plant response rating: 0
velvetleaf; [7]
  Velvetleaf plant response rating: 0
velvetleaf; [8]
  Velvetleaf plant response rating: 0
corn; [1]
  Plant response rating, Corn: 0
corn; [2]
  Plant response rating, Corn: 0
corn; [3]
  Corn plant response rating: 0
corn; [4]
  Plant response rating, Corn: 0
corn; [5]
  Plant response rating, Corn: 0
corn; [13]
  Corn plant response rating: 0
corn; [7]
  Corn plant response rating: 0
corn; [8]
  Corn plant response rating: 0

## CC(C)N(C(=O)n1oc(=O)n(CC2(C)COC2)c1=O)c1ccccc1 [Compound 420]
bedstraw; [1]
  Plant response rating, Bedstraw: 0
bedstraw; [2]
  Plant response rating, Bedstraw: 3
bedstraw; [3]
  Bedstraw plant response rating: 5
bedstraw; [8]
  Bedstraw plant response rating: 0
rice; [15]
  Rice plant response rating: 0
rice; [16]
  Plant response rating, Rice: 0
crabgrass; [1]
  Plant response rating, Crabgrass: 2
crabgrass; [2]
  Plant response rating, Crabgrass: 8
crabgrass; [3]
  Crabgrass plant response rating: 8
crabgrass; [4]
  Plant response rating, Crabgrass: 7
crabgrass; [5]
  Plant response rating, Crabgrass: 9
crabgrass; [13]
  Crabgrass plant response rating: 9
crabgrass; [7]
  Crabgrass plant response rating: 10
crabgrass; [8]
  Crabgrass plant response rating: 2
Purple nutsedge; [2]
  Plant response rating, Nutsedge: 0
Purple nutsedge; [3]
  Nutsedge plant response rating: 0
Purple nutsedge; [4]
  Plant response rating, Nutsedge: 0
Purple nutsedge; [5]
  Plant response rating, Nutsedge: 0
Purple nutsedge; [13]
  Nutsedge plant response rating: 0
Purple nutsedge; [7]
  Nutsedge plant response rating: 10
blackgrass; [1]
  Plant response rating, Blackgrass: 2
blackgrass; [2]
  Plant response rating, Blackgrass: 6
blackgrass; [3]
  Blackgrass plant response rating: 6
blackgrass; [4]
  Plant response rating, Blackgrass: 4
blackgrass; [5]
  Plant response rating, Blackgrass: 8
blackgrass; [6]
  Blackgrass plant response rating: 8
blackgrass; [7]
  Blackgrass plant response rating: 10
blackgrass; [8]
  Blackgrass plant response rating: 0
wheat; [3]
  Wheat plant response rating: 5
wheat; [4]
  Plant response rating, Wheat: 0
wheat; [5]
  Plant response rating, Wheat: 0
wheat; [13]
  Wheat plant response rating: 2
wheat; [7]
  Wheat plant response rating: 7
soybean; [2]
  Plant response rating, Soybean: 3
soybean; [3]
  Soybean plant response rating: 4
soybean; [4]
  Plant response rating, Soybean: 0
soybean; [5]
  Plant response rating, Soybean: 0
soybean; [13]
  Soybean plant response rating: 0
soybean; [7]
  Soybean plant response rating: 0
rape; [2]
  Plant response rating, Rape: 0
rape; [3]
  Rape plant response rating: 0
rape; [4]
  Plant response rating, Rape: 0
rape; [5]
  Plant response rating, Rape: 0
rape; [13]
  Rape plant response rating: 0
rape; [7]
  Rape plant response rating: 8
morningglory; [2]
  Plant response rating, Morningglory: 4
morningglory; [3]
  Morningglory plant response rating: 10
morningglory; [4]
  Plant response rating, Morningglory: 0
morningglory; [5]
  Plant response rating, Morningglory: 0
morningglory; [13]
  Morningglory plant response rating: 2
morningglory; [7]
  Morningglory plant response rating: 8
Duck salad; Postemergence (flood test), Rate 125 g/ha, scale 0 to 10, 0 is no effect, 10 is complete control
  Plant response rating, Ducksalad: 0
Duck salad; [15]
  Ducksalad plant response rating: 0
Duck salad; Rate 62 g/ha, Postemergence (flood test species), scale of 0 to 10 where 0 is no effect and 10 is complete control
  Ducksalad plant response rating: 0
Duck salad; [16]
  Plant response rating, Ducksalad: 0
Giant foxtail; [1]
  Plant response rating, Giant foxtail: 8
Giant foxtail; [2]
  Plant response rating, Giant foxtail: 8
Giant foxtail; [3]
  Giant foxtail plant response rating: 9
Giant foxtail; [4]
  Plant response rating, Giant foxtail: 5
Giant foxtail; [5]
  Plant response rating, Giant foxtail: 9
Giant foxtail; [13]
  Giant foxtail plant response rating: 10
Giant foxtail; [7]
  Giant foxtail plant response rating: 10
Giant foxtail; [8]
  Giant foxtail plant response rating: 7
Surinam grass; [1]
  Plant response rating, B. signalgrass: 2
Surinam grass; [2]
  Plant response rating, B. signalgrass: 5
Surinam grass; [3]
  B. signalgrass plant response rating: 7
Surinam grass; [4]
  Plant response rating, B. signalgrass: 2
Surinam grass; [5]
  Plant response rating, B. signalgrass: 2
Surinam grass; [6]
  B. signalgrass plant response rating: 6
Surinam grass; [14]
  B. signalgrass plant response rating: 8
Surinam grass; [8]
  B. signalgrass plant response rating: 0
Smallflower flatsedge; [15]
  S. Flatsedge plant response rating: 0
Smallflower flatsedge; [16]
  Plant response rating, S. Flatsedge: 0
Wild oat; [3]
  Wild oats plant response rating: 2
Wild oat; [4]
  Plant response rating, Wild oats: 0
Wild oat; [5]
  Plant response rating, Wild oats: 2
Wild oat; [13]
  Wild oats plant response rating: 2
Wild oat; [7]
  Wild oats plant response rating: 5
velvetleaf; [2]
  Plant response rating, Velvetleaf: 0
velvetleaf; [3]
  Velvetleaf plant response rating: 0
velvetleaf; [4]
  Plant response rating, Velvetleaf: 0
velvetleaf; [5]
  Plant response rating, Velvetleaf: 2
velvetleaf; [13]
  Velvetleaf plant response rating: 6
velvetleaf; [7]
  Velvetleaf plant response rating: 7
corn; [1]
  Plant response rating, Corn: 0
corn; [2]
  Plant response rating, Corn: 0
corn; [3]
  Corn plant response rating: 0
corn; [4]
  Plant response rating, Corn: 0
corn; [5]
  Plant response rating, Corn: 0
corn; [13]
  Corn plant response rating: 0
corn; [7]
  Corn plant response rating: 2
corn; [8]
  Corn plant response rating: 0
